Data set [1] in a line: Solubility in 50% sodium hydroxide solution. The data set is classed as physicochemical. As to the method:
A 500 ml, 3-necked round bottom flask was fitted with a mechanical stirrer, thermometer, nitrogen inlet, dropping funnel and vent. Under the nitrogen atmosphere, Armeen CD^(1), 15 g (0.075 mole) was placed in the flask and the contents heated to 138° C. Glycidol in an amount of 16.67 g (0.225 mole) was placed in the dropping funnel and glycidol addition to the Armeen CD was initiated at a rate of approximately 0.15 g/minute. Reaction temperature was maintained at 140°-152° C. and glycidol addition was completed in about 2 hours. The reaction mixture was stirred and heated at reaction temperature an additional 2 hours. The flask and its contents were then cooled and the product removed. […] This product was referred to as cocamine 3-mole glycidol adduct and its molecular weight was 422.
All three products were soluble in 50% sodium hydroxide solution.

For data set [2], the system named is E[…] (Gram Negative). Briefly: Minimum Inhibitory Concentration (MIC) test. The data set is classed as cell-based. Conditions: Escheridida coli (Gram negative). As to the method:
(§1) Minimum Inhibitory Concentration (MIC's) were determined and compared to a nonylphenol-glycidol based surfactant.

The test system of data set [3] is STAPHYLOCOCCUS AUREUS (Gram positive). Briefly: Minimum Inhibitory Concentration (MIC) test. In kind it is cell-based. On the procedure: as §1
Data set [4] relates to A[…] (Fungus). Briefly: Minimum Inhibitory Concentration (MIC) test. In kind it is cell-based. Particulars: Aspergillus niger (fungus). As to the method: as §1
Data set [5] in a line: Surface tension (ASTM Designation D1331-56). In kind it is physicochemical. Conditions: 0.1 wt. % concentration; ASTM D1331-56. The source says: The surface tensions (ASTM Designation D1331-56) of the products at 0.1 wt. % concentration were as follows: […]

Data on two substances can be found in patent publication US5059625A, “Polyglycidol amine oxide surfactants having antimicrobial activity” (Olin Corporation, priority 1990, dated 1991).

Turning to cocamine 3-mole glycidol adduct, the “solubility in 50% sodium hydroxide solution” value in data set [1] was “soluble and clear”.

For the substance Armeen CD-3m glycidol amine [Example I], the “Minimum Inhibitory Concentration” value in data set [2] turned out to be 256 PPM; in data set [3], 32 PPM; in data set [4], 128 PPM. Further, in data set [5], the surface tension was 32.3 dynes/cm.
